Assay results: US12195432B2, “2-arylbenzimidazoles as Ppargc1a activators for treating neurodegenerative diseases” (THE BOARD OF TRUSTEES OF THE LELAND STANFORD JUNIOR …, priority 2018, dated 2025)

What was measured:
[1] = system: TNF-α production by BV2 cells or PBMC; assay: Cellular assay to measure TNF-α inhibition (LPS stimulation, ELISA); type: cell-based, murine or human; details: 100 ng/ml LPS over 24 hours, relative to DMSO vehicle, compound concentration and cell type not given
Text: Oxidative metabolism exerts an anti-inflammatory effect on myeloid cell phenotype (O'Neill L A, Front Immunol. 2014) and Ppargc1a can promote this energy metabolic pathway (Spiegelman B M, Novartis Found Symp. 2007). Thus, pharmacological activation of Ppargc1a would be expected to inhibit the inflammatory response of myeloid cells. This phenomenon can be measured in cultures by a TNF-α inhibition assay.
Cellular Assay Protocol to Measure TNF-α Inhibition
The murine myeloid cell line BV2 or human peripheral blood mononuclear cells (PBMC) are cultured in RPMI 1640 media (Cat #11875119, Gibco) supplemented with 10% fetal bovine serum and 1% L-glutamine 1% penicillin. These cells are then stimulated with 100 ng/ml of lipopolysaccharide (LPS, O111:B4, Cat #L2630, Sigma) over 24 hours. LPS stimulation results in the secretion of the inflammatory cytokine TNF-α by BV2 cells or PBMC, which can be quantified by ELISA in culture supernatant samples per manufacturer's protocol (Cat #558273 for BV2 and Cat #558299 for PBMC, BD Biosciences). To determine whether example compounds 1-78 inhibit TNF-α production by BV2 cells or PBMC, the cells were cultured in the presence of the compounds at different concentrations, and fold reduction in TNF-α production relative to TNF-α production by the same cells cultured in the presence of dimethylsulfoxide (as vehicle control) was determined.

[2] = Pharmacokinetic study (mouse): API levels in plasma, brain and liver; type: in vivo; details: mice, prodrug 10 mg/kg p.o., 0.5 h-4 h, API = example 1 compound; for plasma levels of API: FIG. 1; for brain levels of API: FIG. 2; for liver levels of API: FIG. 3
Method: Pharmacokinetic studies (mouse) were performed on the example 1, 6-P, 8-P, and 11-P compounds of the present invention. The example 1, 6-P, 8-P, and 11-P compounds were dosed in mice at 10 mg/kg p.o. (n=2). Plasma, brain, and liver were harvested at 0.5 h, 1 h, 2 h, and 4 h. The samples were analyzed by LCMS to determine levels of the example 1 compound, i.e., the active pharmaceutical ingredient (API) for prodrug examples 6-P, 8-P, and 11-P.

[3] = system: Caco-2 cells; assay: Caco-2 permeability assay; type: in vitro ADME; details: 10 μM, pH 7.4, 2 h; for Caco2 A → B: apparent permeability A→B, without elacridar
Method: Caco-2 Permeability Assay Protocol
The mixture was analyzed by LC-MS/MS.

plasma levels of API [2] | brain levels of API [2] | liver levels of API [2] | Structure (SMILES) | TNFα Inhibition [1] | also measured
– | – | – | CC(C)(C)c1ccc(-c2nc3ccccc3[nH]2)cc1 [Example 1, 2-(4-(tert-Butyl)phenyl)-1H-benzo[d]imidazole] | A (A = >80% inh.) | –
measurable amounts | measurable amounts | measurable amounts | CC(C)(C)c1ccc(-c2nc3ccccc3n2COC(=O)CCC(=O)O)cc1 [Example 6-P, 4-((2-(4-(tert-Butyl)phenyl)-1H-benzo[d]imidazol-1-yl)methoxy)-4-oxobutanoic acid] | – | –
– | – | – | Clc1ccc(-c2nc3ccccc3[nH]2)cc1 [Example 8, 2-(4-Chlorophenyl)-1H-benzo[d]imidazole] | C (C = <50% inh.) | –
measurable amounts | measurable amounts | measurable amounts | CC(C)(C)c1ccc(-c2nc3ccccc3n2COC(=O)c2ccc(CN)cc2)cc1.Cl [Example 8-P, (4-(((2-(4-(tert-butyl)phenyl)-1H-benzo[d]imidazol-1-yl)methoxy)carbonyl)-phenyl)methylammonium hydrochloride] | – | –
measurable amounts | measurable amounts | measurable amounts | CC(C)(C)c1ccc(-c2nc3ccccc3n2COP(=O)([O-])[O-])cc1.[Na+].[Na+] [Example 11-P, Disodium ((2-(4-(tert-butyl)phenyl)-1H-benzo[d]imidazol-1-yl)methyl) phosphate] | – | –
– | – | – | c1ccc(-c2nc3ccccc3[nH]2)cc1 [Example 14, 2-(Phenyl)-1H-benzo[d]imidazole] | C (C = <50% inh.) | –
– | – | – | CC(C)(C)c1ccc(-c2nc3cc(C(F)(F)F)ccc3[nH]2)cc1 [Example 42, (4-tert-Butylphenyl)-5-(trifluoromethyl)-1H-benzo[d]imidazole] | – | Caco2 B → A ([3]; apparent permeability B→A): 1.2 nm/s
– | – | – | CC(C)(C)c1cccc(-c2nc3ccccc3[nH]2)c1 [Example 58, 2-(3-tert-Butylphenyl)-1H-benzo[d]imidazole] | – | Caco2 A → B [3]: 21 nm/s
– | – | – | CC(C)(C)c1ccc(-c2nc3cc(C(N)=O)ccc3[nH]2)cc1 [Example 75, 2-(4-tert-Butylphenyl)-1H-benzo[d]imidazol-5-carboxamide] | – | Caco2 A → B [3]: 16 nm/s
